The results in this text go back to ChEMBL document CHEMBL1128068, “Inhibitors of human collagenase: dipeptide mimetics with lactam and azalactam moieties at the position” (Bioorg Med Chem Lett, 1995).

pIC50: −log10 of the molar value.

In the experiment the target is T1, Interstitial collagenase (Homo sapiens, UniProt P03956).
T1 sequence (P03956 whole entry): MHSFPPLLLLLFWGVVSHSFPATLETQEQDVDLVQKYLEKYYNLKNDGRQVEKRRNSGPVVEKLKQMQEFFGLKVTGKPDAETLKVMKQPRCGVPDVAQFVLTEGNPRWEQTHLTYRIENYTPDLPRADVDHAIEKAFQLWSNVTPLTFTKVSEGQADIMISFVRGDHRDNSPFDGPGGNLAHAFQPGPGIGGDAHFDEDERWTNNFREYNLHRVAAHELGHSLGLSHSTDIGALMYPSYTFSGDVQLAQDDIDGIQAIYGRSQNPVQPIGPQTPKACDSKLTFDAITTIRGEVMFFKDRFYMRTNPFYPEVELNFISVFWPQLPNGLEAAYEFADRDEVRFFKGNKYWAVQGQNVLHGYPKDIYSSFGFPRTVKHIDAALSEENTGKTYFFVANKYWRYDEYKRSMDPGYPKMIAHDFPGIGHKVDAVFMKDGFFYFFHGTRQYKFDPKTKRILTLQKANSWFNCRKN
In words: Inhibition of semi-purified human lung fibroblast collagenase.
For orientation: pIC50 means the IC50 on a negative log10 scale, so that one unit is a factor of ten. `CC(C)C[C@@H](C(=O)NC1CCCCCCCCCCNC1=O)[C@@H](S)CC(=O)OC(C)C` (stereo partly specified) gave a negative-log IC50 (pIC50) of 7.29. To `CC[C@H](N[C@@H](CC(C)C)C(=O)NC1CCCCN(C)CCCCCNC1=O)P(=O)(O)O` (stereo partly specified) belongs 6.29. For `CC[C@H](N[C@@H](CC(C)C)C(=O)NC1CCCCNCCCCCCNC1=O)P(=O)(O)O` (stereo partly specified), the pIC50 was 6.51. To `CC(C)CC(CC(=O)NO)C(=O)NC1CCCCCCCCCCNC1=O` (stereo unspecified) belongs 7.59; to `CC(C)CC(CC(=O)NO)C(=O)N[C@H]1CCCCNCCCCCNC1=O` (stereo in doubt; 17b), 7.09. Compound `CC(C)CC(CC(=O)NO)C(=O)N[C@H]1CCCCNCCCCCNC1=O` (stereo in doubt; 17a) gave a negative logarithm of the IC50 (pIC50) of 7.92. Compared with the last compound, the pIC50 is 0.83 log units higher. `CC[C@H](N[C@@H](CC(C)C)C(=O)NC1CCCNCCCCCCNC1=O)P(=O)(O)O` (stereo partly specified) gave a pIC50 of 6.64. For the compound `CCC(N[C@@H](CC(C)C)C(=O)NC1CCCCCCCCCCNC1=O)P(=O)(O)O` (stereo partly specified), the pIC50 is 6.74. The pIC50 values of the last two compounds are within 0.2 log units of each other. The same measure for `CC(C)CC(C(=O)NC1CCCCNCCCCCNC1=O)[C@@H](S)CC(=O)OC(C)C` (stereo partly specified): 7.36. To `CC[C@H](N[C@@H](CC(C)C)C(=O)NC1CCCCNCCCCCNC1=O)P(=O)(O)O` (stereo partly specified) belongs 6.34.

In turn, `CC[C@H](N[C@@H](CC(C)C)C(=O)NC1CCCCNCCCNC1=O)P(=O)(O)O` (stereo partly specified) showed a negative-log IC50 (pIC50) of 5.65.
